This is an account of results in publication PMC3283556, “The Activities of Current Antimalarial Drugs on the Life Cycle Stages of Plasmodium: A Comparative Study with Human and Rodent Parasites” (PLoS Medicine, 2012).

Each structure is given as a SMILES string. Like-named read-outs stand apart in the source and are kept apart here. Bounds are passed on as bounds.

In data set [1] the test system is P. yoelii liver stage parasites (liver schizonts). In words: P. yoelii liver stage assay in HepG2 cells (EEF immunofluorescence). In kind it is cell-based, Plasmodium yoelii. As to conditions: Plasmodium yoelii. As for the experimental part:
(§1) 7.5×10^3 HepG2 cells in 50 µl of medium (1.5×10^5 cells/ml) were seeded in 384 well plates (Aurora 384 IQ-EB Black/Clear Plates) 20–26 h prior to the actual infection. 2 h prior to infection, 50 nl of compound in DMSO (0.1% final DMSO concentration per well) were transferred with a PinTool (GNF Systems) into the assay plates (10 µM final concentration). P. yoelii sporozoites were freshly dissected from infected A. stephensi mosquito salivary glands and filtered twice with a 40-µm strainer. The HepG2 cells were then infected with 8×10^3 sporozoites per well. After infection and 1-h incubation at 37°C, the cultures were washed, new media and compound added, and further incubated with 5-fold increased concentration of penicillin/streptomycin for 48 h at 37°C before exoerythrocytic forms (EEFs) quantification of infected cells by immunofluorescence.
After washing with 1×PBS and fixation of the cells with 4% paraformaldehyde solution (EMS), membranes were permeabilised with 0.5% Triton-X-100 (Thermo Fisher Scientific) and EEFs were stained using a mouse polyclonal serum raised against the Plasmodium heat shock protein 70 (HSP70), an Alexa goat antimouse IgG, Fca-specific DyLight 649 secondary antibody (Invitrogen), and the Hoechst 33342 nucleic acid dye (Invitrogen). Stained EEFs were then quantified using the Opera Confocal High Content Screening system (PerkinElmer). Images were collected using a 20× magnification at a binning of 2 using a 365 Xeon arc lamp illumination to detect the nuclei and 635-nm laser line to excite DyLight649.
(§2) High-content imaging of infected HepG2-CD81 cells was performed as described in Meister et al.. Wells were analysed using a custom Acapella (PerkinElmer) script parameterized for this assay. In brief, images from fields inside the well were first discarded as out of focus when the intensity in the nuclear area was too low. Then hepatic cells were counted by detecting the nuclei labelled with Hoechst 33342 and parasites were segmented using the HSP70 immuno-labelling. Morphology-based (e.g., area, roundness) and intensity-based features were calculated for each object detected including the hepatocyte nuclei and the parasites. Parasitemia was set as the ratio between parasite number (Alexa fluor positive) and the hepatocyte nuclei count, determined at the same time.
(§3) When an infected mosquito bites a host, ∼100 sporozoites may be injected into the dermis from where they rapidly invade liver cells,[33]. This infective step represents the second bottleneck during transmission and therefore another potentially vulnerable point for intervention. In the absence of a practical liver stage assay measuring the formation of P. falciparum/P. vivax liver schizonts, an equivalent assay was developed in P. yoelii and used to assess the activity of the collection of molecules against this specific stage. Specifically, P. yoelii sporozoites were dissected from the salivary glands of infected mosquitoes and were allowed to invade human hepatocarcinoma cells expressing the CD81 protein. The development of the liver schizonts was monitored by immunofluorescence staining using an HSP70 antibody specific to the parasite (Figure 4A).
Figure 4 Validation and results of anti-infectives tested against P. yoelii liver stage parasites. (A) Opera-generated images from a time point experiment using a 20× objective lens. P. yoelii parasites (red) were visualized using a mouse polyclonal HSP70 antibody, and the HepG2 cells (green) were stained with Hoechst 33342 nucleic acid dye. […] (B) A dose response plot with atovaquone from data generated from the Opera imaging system. The median areas of compound-treated parasites were compared to untreated DMSO controls to determine the degree of inhibition.

Data set [2] relates to P. falciparum mature gametocytes / male gamete exflagellation. The data set can be described thus: P. falciparum exflagellation assay. In kind it is cell-based, Plasmodium falciparum. As to conditions: for inhibition at 10 µM: Plasmodium falciparum. The protocol:
After 24 h, exflagellation was triggered by a temperature decrease to ∼21°C and observed 20 min later under the microscope. Highly motile exflagellation centres were recorded for ∼50–150 adjacent fields of view and reported per 10,000 RBCs.
(§4) (A) Assays examined exflagellation (P. falciparum), ookinete formation (P. berghei), or oocyst formation (P. falciparum). All antimalarials were screened at 10 µM. (B) The biological content of the in vitro P. berghei ookinete assay spans gamete formation, fertilization, zygote development, and ookinete formation. […] (D) The in vitro P. falciparum exflagellation assay exposes mature gametocytes to antimalarials for 24 h before triggering exflagellation. […] All experiments in triplicate. (E) The in vivo P. falciparum oocyst assay differs from the P. berghei oocyst assay in that mature gametocytes were exposed to the antimalarials in culture for 24 h before feeding to mosquitoes.

Data set [3] has as its system Plasmodium oocysts. The data set can be described thus: Oocyst development / sporogony, Plasmodium species not stated at the place. In kind it is in vivo. Conditions: Plasmodium; 10 μM; box linked to oocysts; read-out: Inhibition at 10 μM (oocysts, Figure 5). As for the experimental part:
(§5) Membrane feeds were performed as described previously. Briefly, PbGFPcon-infected mouse blood was mixed with compounds, immediately placed into membrane feeders (39°C) and offered for 30 min to 80–100 overnight-starved A. stephensi (SDA 500 strain). After 7–9 d at 19°C/80%RH, mosquito midguts were dissected out. Midguts were fixed with paraformaldehyde and oocyst number was determined microscopically by semi-automated analysis as previously described.
Gametocyte cultures were produced according to the same protocol as the Pf exflagellation assay. Pooled gametocyte cultures were evenly divided between compounds in fresh medium and incubated at 37°C for 24 h. The parasite pellets were then resuspended in fresh RBCs and human serum treated with the compounds to a 50% haematocrit and immediately fed to mosquitoes as described above and then maintained at 27°C/60%RH for 10–12 d before dissection and counting. […]

Data set [4] has as its system P. berghei ookinete formation. The data set can be described thus: P. berghei ookinete development assay. In kind it is cell-based, Plasmodium berghei. Conditions: for effect on ookinete formation: 10 µM; for inhibition at 10 µM: Plasmodium berghei, box linked to ookinete, read-out: Inhibition at 10 μM (ookinete, Figure 5). As for the experimental part:
Compounds and P. berghei gametocyte-infected blood were dispensed in a 96-well plate containing ookinete medium. After 24 h at 19°C, Giemsa-stained ookinetes were counted under the microscope (×40) as previously described,[28].
as §4, with “Figure 3 The transmission-blocking potential of selected antimalarials in three bioassays that cover different phases of Plasmodium vector stage development. (A)” for “(A)”, “formation. Ookinete formation was insensitive to most of the antimalarials tested.” for “formation.”, “mosquitoes. […] NPC1161-B, lumefantrine, halofantrine, and mefloquine +RS isomer were also active. (n = 4–61 observations; average ± standard error of the mean [SEM]).” for “mosquitoes.”

In data set [5] the test system is P. falciparum asexual blood stage parasites (strains NF54, D6, K1, W2, 7G8, TM90C2A, V1/S). The data set can be described thus: [3H]-hypoxanthine incorporation growth inhibition assay, asexual blood stage. In kind it is cell-based, Plasmodium falciparum. The protocol: In vitro antimalarial activity was measured using the [^3H]-hypoxanthine incorporation assay with various strains of P. falciparum obtained from MR4. Results were expressed as the concentration resulting in 50% inhibition (IC50).
The half-maximal inhibitory concentrations (IC50) were determined for each molecule (Table S2).
Figure 2 The potencies of selected antimalarials against asexual blood stages. Main classes of antimalarials were tested against the blood stage of seven Plasmodium falciparum strains in the [^3H]hypoxanthine incorporation assay as described in Vennerstrom et al.. The strains tested here (obtained from MR4) were two drug-sensitive strains NF54 and D6 and five drug-resistant strains: K1, resistant to chloroquine (CQ) and pyrimethamine (PYR), origin Thailand, carries mutations in genes pfmdr1, pfcrt, pfdhfr, pfdhps; W2, resistant to CQ, PYR, quinine, cycloguanil, and sulfadoxine, origin Vietnam; 7G8, resistant to CQ and PYR, origin Brazil; TM90C2A, resistant to CQ, PYR, and MFQ, origin Thailand; and V1/S, resistant to CQ, PYR and cycloguanil, origin Vietnam. Results are expressed as the concentration resulting in 50% growth inhibition (IC50).Values are means of ≥3 independent experiments. (A) Endoperoxides. (B) 4-AQs. (C) 8-AQs and amino alcohols. (D) Antifolates, antibiotics, and others.

Data set [6] has as its system P. berghei oocyst formation. In words: Standard membrane feed assay, P. berghei oocysts in A. stephensi. In kind it is in vivo, Plasmodium berghei. Conditions: 10 µM. The protocol:
as §5
Supplementary file pmed.1001169.s001.tif: Figure S1 The transmission-blocking potential of selected compounds against P. berghei in standard membrane feeding assays. All antimalarials were screened at 10 µM in triplicate in independent experiments. The biological content of this assay spans gamete formation through to occyst development all within the gut of the mosquito. […] (TIF) Click here for additional data file.

Data set [7] deals with P. falciparum oocyst formation. In words: Standard membrane feed assay, P. falciparum oocysts in A. stephensi. In kind it is in vivo, Plasmodium falciparum. As to conditions: 10 µM, gametocytes exposed 24 h before feeding. As for the experimental part: Gametocyte cultures were produced according to the same protocol as the Pf exflagellation assay. Pooled gametocyte cultures were evenly divided between compounds in fresh medium and incubated at 37°C for 24 h. The parasite pellets were then resuspended in fresh RBCs and human serum treated with the compounds to a 50% haematocrit and immediately fed to mosquitoes as described above and then maintained at 27°C/60%RH for 10–12 d before dissection and counting.
as §4, with “Figure 3 The transmission-blocking potential of selected antimalarials in three bioassays that cover different phases of Plasmodium vector stage development. (A)” for “(A)”, “formation. Ookinete formation was insensitive to most of the antimalarials tested.” for “formation.”, “mosquitoes. […] NPC1161-B, lumefantrine, halofantrine, and mefloquine +RS isomer were also active. (n = 4–61 observations; average ± standard error of the mean [SEM]).” for “mosquitoes.”

Data set [8] relates to P. berghei ookinete formation. In words: P. berghei ookinete development assay. In kind it is cell-based. Conditions: Plasmodium berghei; medium throughput fluorescent ookinete assay.
In data set [9] the test system is HepG2 cells. The data set can be described thus: Growth retardation of HepG2 cells. The protocol: as §1, §2, §3
Details of data set [10]: method as in PMID 22759078, PMID 17053895, PMID 18694333, PMID 18840754, PMID 19776738. Conditions: human blood, therapeutic / relevant doses; cited from earlier work.
[11] abbreviates: HepG2, box linked to liver schizont, read-out: IC50 (liver schizont, Figure 5).
Where [12] appears, read: read-out: inhibition of exflagellation, 10 µM, 24 h exposure of mature gametocytes.
[13] abbreviates: Plasmodium falciparum, Erythrocyte, box linked to blood stage schizont, read-out: IC50 (erythrocyte schizont, Figure 5).
Where [14] appears, read: 10 μM, box linked to gametocytes/exflagellation, read-out: Inhibition at 10 μM (gametocytes/exflagellation, Figure 5).

One may read the IC50 as the concentration at which inhibition is half-maximal. Turning to `CCc1nc(N)nc(N)c1-c1ccc(Cl)cc1` [pyrimethamine], the IC50 in data set [1] (setting [11]) is < 1000 nM; in data set [1] (HepG2, dose response, median parasite area (Opera), read-out: IC50 liver stage), < 10 nM; in data set [5] (setting [13]) it was < 20 nM. Further, the inhibition at 10 µM is > 80% in data set [2] (setting [12]), > 90% in data set [3] and > 80% in data set [4]. The “effect on ookinete formation” value in data set [4] is listed as “strongly inhibited ookinete formation”. For the same molecule, in [5] (drug-resistant strains), the “resistance / retention of potency against resistant strains” value is “Resistance to pyrimethamine was verified in all drug-resistant strains”. The “transmission-blocking effect on P. berghei oocysts (words)” value in data set [6] is given as “most notable transmission-blocking activity”.

Regarding `OC(c1cc(C(F)(F)F)nc2c(C(F)(F)F)cccc12)C1CCCCN1` (stereo not shown) [mefloquine (+RS)], the “transmission-blocking effect on P. falciparum oocysts (words)” value in data set [7] is given as “totally blocked transmission”; in data set [7] (listed as mefloquine +RS isomer) it was “active”. In addition, the inhibition at 10 µM was > 80% in [2] (setting [12]), > 60% in data set [2] (setting [14]) and > 90% in data set [3]. Further, the IC50 in data set [5] (strain not specified) was < 10 nM.

For `COc1ccc2nc3cc(Cl)ccc3c(Nc3cc(CN4CCCC4)c(O)c(CN4CCCC4)c3)c2n1` [pyronaridine], the IC50 in [1] (setting [11]) is < 1000 nM; in [1] (HepG2, development of P. yoelii liver schizonts following infection of HepG2 cells, read-out: IC50 Parasite), 270 ± 130 nM; in data set [1] (HepG2, dose response, read-out: IC50 liver stage), < 3000 nM; in data set [8], 6000 nM; in [9] (Homo sapiens, HepG2, read-out: IC50 HepG2) it was < 170 nM; in [5] (Plasmodium falciparum, asexual blood stage, all parasite lines), 2 to 10 nM. Besides, the “effect on exflagellation (words)” value in data set [2] (10 µM, 24 h exposure of mature gametocytes) is reported as “inhibited P. falciparum exflagellation”; in data set [2] (10 µM, 24 h exposure of mature gametocytes, listed as Pyronaridine), “inhibited exflagellation totally”. Moreover, the inhibition at 10 µM in data set [2] (setting [12]) was > 80%; in data set [2] (setting [14]) it was > 60%; in [4] it was > 80%. In [9] (IC50 HepG2 compared to IC50 parasite), the “CI (cytotoxicity index)” value was <0.63. Moreover, the “effect on ookinete formation” value in data set [4] is reported as “strongly inhibited ookinete formation”.

The Cmax is the peak of the concentration-time curve. Turning to `CO[C@H]1O[C@@H]2O[C@@]3(C)CC[C@H]4[C@H](C)CC[C@@H]([C@H]1C)[C@@]24OO3` [artemether], in data set [1] (setting [11]), the IC50 was < 1000 nM. In addition, the Cmax in [10] was 100 nM.

Regarding `O=C1C(O)=C([C@H]2CC[C@H](c3ccc(Cl)cc3)CC2)C(=O)c2ccccc21` [atovaquone], the figures for the IC50 in [1] (setting [11]), in data set [8] and in data set [5] (setting [13]) were < 1000 nM, 65 nM and < 1 nM, respectively. In addition, in data set [4], the “effect on ookinete formation” value is recorded as “strongly inhibited ookinete formation”. In addition, the inhibition at 10 µM in data set [4] is > 80%. For the same molecule, in data set [5] (P. falciparum blood stages), the “potency range against blood stages” value was “subnanomolar range”. Also, the “fold difference in potency between strains” value in data set [5] (between the strains D6 and V1/S) is on record as ≤ 10 fold.
